# According to patent US5441883A, “A3 adenosine receptor, DNA, and uses” (priority 1993, dated 1995):
# Where two headings read alike, the source gives them in different places.
# Legend:
# A3 adenosine receptor [1] = molecular target: T1, A3 adenosine receptor (Rattus norvegicus, UniProt P28647); experiment: biochemical; assay type: binding; conditions: for pharmacological profile of inhibition of [125I]APNEA binding: rank order; for inhibition at 100 µM: read-out: inhibition of specific [125I]APNEA binding; for inhibition at 1000 µM: read-out: inhibition of [125I]APNEA binding; for IC50: 0.5 nM [125I]APNEA
# T1 sequence (P28647 1-320): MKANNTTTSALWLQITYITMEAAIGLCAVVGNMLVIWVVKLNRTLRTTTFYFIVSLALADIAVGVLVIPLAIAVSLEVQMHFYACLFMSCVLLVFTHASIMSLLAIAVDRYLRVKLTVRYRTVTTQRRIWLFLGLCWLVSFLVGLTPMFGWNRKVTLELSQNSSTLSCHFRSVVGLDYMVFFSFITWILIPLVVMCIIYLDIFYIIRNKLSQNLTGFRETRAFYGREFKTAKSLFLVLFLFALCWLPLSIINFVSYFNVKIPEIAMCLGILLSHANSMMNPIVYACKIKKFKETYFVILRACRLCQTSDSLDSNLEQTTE
# Method: FIGS. 4A and 4B illustrates competitive binding assays using stably transfected CHO cell membrane preparations.
# (§1) Cell membranes were prepared as follows. COS-7 cells (transient expressors) were harvested 48 hrs after transfection, whereas CHO cells (stable expressors) were grown to confluence in 150 mm plates. Cells were washed twice with ice-cold HOB buffer [15 mM Tris-HCl (pH 7.4), 5 mM MgCl2, 1 mM EDTA] and scraped off plates with a rubber policeman. Cells were then collected by centrifugation at 1,200 rpm (xx g), resuspended in HOB buffer, transferred to a Dounce homogenizer on ice, and homogenized for 20 sec with a CorTarge homogenizer (Eberbach Inc., Ann Arbor, Mich.) at the #3 speed setting. The homogenate was then centrifuged at 2,000 rpm (xx g) for 10 min at 4° C. The supernatant was saved and the pellet resuspended in HOB buffer and subjected to a second round of homogenation. The second homogenate was centrifuged at 2000 rpm (xx g) for 10 min and the pellet was discarded. Supernatants were pooled and centrifuged at 34,000 rpm (xx g) for 45 min. These crude membrane pellets were resuspended in TEM buffer [50 mM Tris-HCl (pH 7.4), 5 mM MgCl2, 1 mM EDTA]. Adenosine deaminase (Sigma, St Louis, Mo.) was added to the membrane suspensions to a concentration of 2 Units/ml and incubated at 37° C. for 30 min. The membrane suspension was subsequently recentrifuged at 34,000 rpm (xx g) for 45 min. The resulting pellet was resuspended in TEM buffer at a protein concentration of about 1 mg/ml and stored in small aliquots at -70° C. The protein concentration was measured according to the method of Lowry et al. (1954, J. Biol. Chem. 207: 1-XXX) using bovine serum albumin as a standard.
# Radioligand binding assays were carried out in duplicate in 500 μl of a solution containing (at final concentrations) 50 mM Tris-HCl (pH 7.4), 5 mM MgCl2, 1 mM EDTA, 0.025 % ascorbic acid, radioligands, and appropriate drugs. […] ([aH]XAC), [^3 H]-labeled 2-[4-(2-[(4-aminophenyl)methylcarbobylamino]ethylaminocarbonyl)ethyl)phenyl]ethylamino-5'-N-ethylcarboxamidoadenosine ([^3 H]PAPA-APEC), and [^3 H]-labeled [2-(4-(2-carboxyethyl)phenylethyamino)5'-N-ethylcarboxamidoadenosine ([^3 H]CGS21680). Receptor binding was initiated by the addition of membrane preparations in an amount equivalent to 20-100 μg protein, and carried out at 37° C. for 1 hr. Nonspecific binding was determined in the presence of 10 μM R-N^6 -phenyl-2-propyladenosine (R-PIA). After incubation, samples were filtered through glass fiber filters (Schleicher and Schuell #32) and washed three times with 4 ml ice-cold 10 mM TrisoHCl (pH 7.4). Radioactivity retained on the filters were counted using a Beckman LS6800 scintillation counter (Beckman Instruments, Palo Alto, Calif.). […] A LIGAND computer program was used for data analysis and curve fitting (Munson & Rodband, 1980, Anal. Biochem. 107: 220-225).
# The A3 receptor was then characterized using competition assays between [^125 I]APNEA A3 receptor binding versus a series of other adenosine receptor ligands. Labeled APNEA was present in these assays at 0.5 nM; unlabled competitors were present at varying concentrations as shown in FIG. 4A.
# A3 adenosine receptor [2] = molecular target: T1, A3 adenosine receptor; experiment: cell-based; assay type: cell-based; conditions: for effect on forskolin-stimulated cAMP: 100 μM ATP or ADP; for inhibitory effect of R-PIA and NECA on forskolin-stimulated cAMP production after pertussis toxin pretreatment: 100 ng/ml pertussis toxin, 18 hours
# Method: The concentrations of adenosine agonists used are 100 nM and the concentration of forskolin is 1 μM. Values are obtained from triplicate plates and shown as mean ±S.E.
# The cell were not or pretreated with 100 ng/ml pertussis toxin for 18 hours. The concentration of forskolin and adenosine agonists used are as in FIG. 5.
# It is known that the A 1 adenosine receptor inhibits adenylate cyclase activity and the A2 adenosine receptor stimulates adenylate cyclase respectively (Stiles, ibid.; Williams, ibid.).
# Cells were grown to about 80% confluence in 150 mm dishes, washed twice with Ca^++ and Mg^++ -free PBS buffer and detached from plates with PBS buffer containing 0.02% EDTA. Cells were collected by centrifugation at 800 rpm (xx g) for 10 min at 4° C. and resuspended in an appropriate volume of KRH buffer [140 mM NaCl, 5 mM KCl , 2 mM CaCl2, 1.2 mM MgSO4, 1.2 mM KH2 PO4, 6 mM glucose, 25 mM Hepes-NaOH (pH 7.4)]. The cells were washed once with KRH buffer and resuspended in KRH buffer at a concentration of 10^7 cells/ml. Each of 100 μl aliquots of this cell suspension were added to a glass tube containing 100 μl KRH+200 μM Ro 20-1724 and incubated at 37° C. for 10 min. Prewarmed 200 μl KRH containing 200 μm Ro 20-1724 and test drugs were then added to the cells and mixed. After incubation at 37° C. for 20 min, 400 μl 10.5 mM NaAc (pH 6.2) were added and the glass tubes transferred to a boiling water bath. The incubated cell suspension were boiled for 20 min, and the tubes were then cooled to room temperature and centrifuged at 3000 rpm (xx g) for 15 min.
# For experiments using pertussis toxin pretreatment, aseptic pertussis toxin (Sigma Chemical Co., St. Louis, Mo.) was dissolved in sterile water and added to the medium to a final concentration of 100 ng/ml. Toxin treatment was maintained for approximately 18 hours. The dishes were rinsed once with media immediately prior to the addition of adenosine receptor ligands and processed as described above.
# A3 adenosine receptor [3] = molecular target: T1, A3 adenosine receptor; experiment: Direct radioligand binding / Scatchard analysis, stably transfected CHO cell membranes; conditions: radiolabeled ligands, stably transfected CHO membranes
# Description: FIG. 3 illustrates a Scatchard plot of radioligand binding assays for the A3 adenosine receptor performed with the adenosine radioligand [^125 I]APEA and membrane preparations from stably transfected CHO cells.
# The entire coding region of the A3 cDNA insert from R226 was excised from pGem226 and subcloned into either the HindIII/XbaI sites of an RC-RSV expression vector (Invitrogene, San Diego, Calif.) or the HindIII/SmaI sites of pBC12BI (Cullen, 1987, Meth. Enzym. 152: 684-704). The resulting plasmids were called Rc-RSV226 and pBC226 respectively. For transient expression in COS-7 cells, pBC226 plasmid DNA was prepared in large-scale through one cycle of CsCl gradient ultracentrifugation and 45 μg pBC226 DNA were transfected into each 150mm dish of COS-7 cells according to the method of Chen and Okayama (1987, Molec. Cell Biol. 7: 2745-2752). For stable expression in CHO cells, 1 μg Rc-RSV226 plasmid DNA isolated from a small-scale preparation was purified using the Prep-A-Gene kit (Bio-Rad) and transfected into CHO cells by the CaPO4 method (Graham and van der Eb, 1973, Virol. 52: 456-463). After transfection, cells were cultured in DMEM (COS-7 cells) or F-12 (CHO cells) media supplemented with 10% fetal calf serum in a 3% CO2 atmosphere at 37° C. For stable transfection, selection was performed with neomycin (G418; SOURCE) at a concentration of 700 μg/ml; selection was started 72 hr after transfection and continued for 3 weeks. Cell colonies were screened for expression of the A3 adenosine receptor from the R226 expression vectors described herein by Northern blot hybridization of total cellular RNA with random-primed PCR226 probe (Maniatis et al., ibid.).
# as §1
# Radioligand binding assays were carried out in duplicate in 500 μl of a solution containing (at final concentrations) 50 mM Tris-HCl (pH 7.4), 5 mM MgCl2, 1 mM EDTA, 0.025 % ascorbic acid, radioligands, and appropriate drugs. […] ([aH]XAC), [^3 H]-labeled 2-[4-(2-[(4-aminophenyl)methylcarbobylamino]ethylaminocarbonyl)ethyl)phenyl]ethylamino-5'-N-ethylcarboxamidoadenosine ([^3 H]PAPA-APEC), and [^3 H]-labeled [2-(4-(2-carboxyethyl)phenylethyamino)5'-N-ethylcarboxamidoadenosine ([^3 H]CGS21680). Receptor binding was initiated by the addition of membrane preparations in an amount equivalent to 20-100 μg protein, and carried out at 37° C. for 1 hr.
compound,measurement,setting,value
Nc1ncnc2c1ncn2[C@@H]1O[C@H](COP(=O)(O)OP(=O)(O)OP(=O)(O)O)[C@@H](O)[C@H]1O [ATP],pharmacological profile of inhibition of [125I]APNEA binding,A3 adenosine receptor [1],R-PIA=NECA>S-PIA>adenosine>ATP=ADP
same,inhibition at 100 µM,A3 adenosine receptor [1],50%
same,effect on forskolin-stimulated cAMP,A3 adenosine receptor [2],had no effect
Cc1ccc(N(CC2=NCCN2)c2cccc(O)c2)cc1 [phentoamine],ability to compete with [125I]APNEA for A3 receptor binding,A3 adenosine receptor [1]; 100 μM,failed to compete with labeled APNEA
Nc1ncnc2c1ncn2[C@@H]1O[C@H](COP(=O)(O)OP(=O)(O)CP(=O)(O)O)[C@@H](O)[C@H]1O [AMP-PCP],inhibition at 1000 µM,A3 adenosine receptor [1],< 20%
NCCc1c[nH]c2ccc(O)cc12 [serotonin],ability to compete with [125I]APNEA for A3 receptor binding,A3 adenosine receptor [1]; 100 μM,failed to compete with labeled APNEA
NCCc1ccc(O)c(O)c1 [dopamine],ability to compete with [125I]APNEA for A3 receptor binding,A3 adenosine receptor [1]; 100 μM,failed to compete with labeled APNEA
CCNC(=O)[C@H]1O[C@@H](n2cnc3c(N)nc(NCCc4ccc(CCC(=O)NCCNC(=O)Cc5ccc(N)cc5)cc4)nc32)[C@H](O)[C@@H]1O [PAPA-APEC],"specific, high affinity binding to the A3 receptor",A3 adenosine receptor [3],"The only adenosine receptor ligand to show specific, high affinity binding to the A3 receptor was the A1 selective agonist [^125 I]APNEA"
C[C@@H](Cc1ccccc1)Nc1ncnc2c1ncn2[C@@H]1O[C@H](CO)[C@@H](O)[C@H]1O [S-PIA],IC50,A3 adenosine receptor [1]; Table I,1140 ± 490 nM
same,pharmacological profile of inhibition of [125I]APNEA binding,A3 adenosine receptor [1],R-PIA=NECA>S-PIA>adenosine>ATP=ADP
CC(C)NCC(O)c1ccc(O)c(O)c1 (stereo not shown) [isoproterenol],ability to compete with [125I]APNEA for A3 receptor binding,A3 adenosine receptor [1]; 100 μM,failed to compete with labeled APNEA
Nc1ncnc2c1ncn2[C@@H]1O[C@H](COP(=O)(O)OP(=O)(O)NP(=O)(O)O)[C@@H](O)[C@H]1O [App(NH)p],inhibition at 1000 µM,A3 adenosine receptor [1]; 1 mM,< 20%
C[C@H](Cc1ccccc1)Nc1ncnc2c1ncn2[C@@H]1O[C@H](CO)[C@@H](O)[C@H]1O [R-PIA],IC50,A3 adenosine receptor [1]; Table I,63 ± 19 nM
same,pharmacological profile of inhibition of [125I]APNEA binding,A3 adenosine receptor [1],R-PIA=NECA>S-PIA>adenosine>ATP=ADP
same,inhibitory effect of R-PIA and NECA on forskolin-stimulated cAMP production after pertussis toxin pretreatment,A3 adenosine receptor [2],almost completely abolished
same,inhibition of forskolin-stimulated cAMP accumulation,"A3 adenosine receptor [2]; 1 μM forskolin, 100 nM agonist",20-50%
same,EC50,A3 adenosine receptor [2]; Table II,18 ± 5.6 nM
C[N+](C)(C)CCOC(N)=O [carbacol],ability to compete with [125I]APNEA for A3 receptor binding,A3 adenosine receptor [1]; 100 μM,failed to compete with labeled APNEA
Nc1ncnc2c1ncn2[C@@H]1O[C@H](COP(=O)(O)OP(=O)(O)O)[C@@H](O)[C@H]1O [ADP],inhibition at 100 µM,A3 adenosine receptor [1]; 100 μM,25%
same,pharmacological profile of inhibition of [125I]APNEA binding,A3 adenosine receptor [1],R-PIA=NECA>S-PIA>adenosine>ATP=ADP
same,effect on forskolin-stimulated cAMP,A3 adenosine receptor [2],had no effect
CSc1nc(N)c2ncn([C@@H]3O[C@H](COP(=O)(O)O)[C@@H](O)[C@H]3O)c2n1 [2-methyl-S-AMP],inhibition of [125I]APNEA binding,A3 adenosine receptor [1]; 1 mM,< 20%
Nc1ncnc2c1ncn2[C@H]1C[C@H](O)[C@@H](CO)O1 [2-deoxyadenosine],inhibition at 1000 µM,A3 adenosine receptor [1]; 1 mM,< 20%
O=c1ccn([C@@H]2O[C@H](COP(=O)(O)OP(=O)(O)OP(=O)(O)O)[C@@H](O)[C@H]2O)c(=O)[nH]1 [UTP],inhibition at 1000 µM,A3 adenosine receptor [1]; 1 mM,< 20%
CC(C)Cn1c(=O)n(C)c(=O)c2[nH]cnc21 [IBMX],ability to compete with [125I]APNEA for A3 receptor binding,A3 adenosine receptor [1]; 100 μM,none of the methylxanthines tested were capable of competing with labeled APNEA
Nc1nc2c(ncn2[C@@H]2O[C@H](COP(=O)(O)OP(=O)(O)NP(=O)(O)O)[C@@H](O)[C@H]2O)c(=O)[nH]1 [Gpp(NH)p],competition for labeled APNEA binding,"A3 adenosine receptor [1]; Gpp(NH)p, varying concentrations",60-70%
same,IC50,A3 adenosine receptor [1]; Table I and text,1000 nM
pertussis toxin,inhibitory effect of R-PIA and NECA on forskolin-stimulated cAMP production after pertussis toxin pretreatment,A3 adenosine receptor [2],almost completely abolished
